# According to patent US5753715A, “2-disubstituted cyclohexenyl and cyclohexyl antimicrobial agents” (Ortho Pharmaceutical Corporation, priority 1995, dated 1998):
# Experiments:
# [1] = molecular target: T1, Kinase A and SpoOF (Bacillus subtilis, UniProt P16497); assay: Autophosphorylation of Kinase A and Transphosphorylation of SPoOF Assay; format: biochemical; conditions: inhibition of Kinase A autophosphorylation / SpoOF transphosphorylation, [32P]ATP, gel, phosphoimager
# T1 sequence (P16497 1-606): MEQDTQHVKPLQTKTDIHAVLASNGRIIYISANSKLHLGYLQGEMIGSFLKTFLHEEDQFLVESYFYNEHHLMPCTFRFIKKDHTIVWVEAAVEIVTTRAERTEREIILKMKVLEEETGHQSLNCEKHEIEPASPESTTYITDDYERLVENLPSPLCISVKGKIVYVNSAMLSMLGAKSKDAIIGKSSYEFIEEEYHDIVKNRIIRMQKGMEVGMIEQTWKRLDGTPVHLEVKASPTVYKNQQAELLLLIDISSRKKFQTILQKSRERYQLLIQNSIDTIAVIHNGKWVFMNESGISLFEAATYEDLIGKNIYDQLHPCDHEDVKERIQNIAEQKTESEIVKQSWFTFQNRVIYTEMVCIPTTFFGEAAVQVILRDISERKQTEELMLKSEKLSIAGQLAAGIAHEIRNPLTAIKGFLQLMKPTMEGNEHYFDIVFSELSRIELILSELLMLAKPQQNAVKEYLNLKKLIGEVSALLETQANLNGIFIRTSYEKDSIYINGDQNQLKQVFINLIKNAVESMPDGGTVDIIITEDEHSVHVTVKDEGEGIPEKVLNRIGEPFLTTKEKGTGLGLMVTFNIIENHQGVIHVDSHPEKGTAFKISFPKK
# [2] = test system: A. niger 10578; assay: MIC, microdilution broth method (NCCLS); format: cell-based; conditions: cation supplemented Mueller Hinton broth, 35° C., 16-20 hours; unit assumed
# Experimental: (§1) The in vitro antimicrobial spectrum of the compounds of the present invention were determined by the microdilution broth method following the test method from the National Committee for […] (NCCLS ). The method is described in the NCCLS Document M7-A2, Vol. 10, No.8 "Methods for Dilution Antimicrobial Susceptibility Test for Bacteria that Grow Aerobically--Second Edition".
# (§2) In this method two fold serial dilutions of drug in cation supplemented Mueller Hinton broth are added to wells in microdilution trays. The test organisms are prepared by adjusting the turbidity of actively growing broth cultures so that the final concentration of test organism after it is added to the wells is approximately 5×10^4 colony forming units per well delivered by the Steers replicating device.
# (§3) Following inoculation of the microdilution trays, the trays are incubated at 35° C. for 16-20 hours and then read. […] The amount of growth in the wells containing the test compound is compared with the amount of growth in the growth-control wells used in each tray.
# [3] = test system: C. albicans 10231; assay: MIC, microdilution broth method (NCCLS); format: cell-based; conditions: cation supplemented Mueller Hinton broth, 35° C., 16-20 hours; unit assumed
# Experimental: as §1, §2, §3
# [4] = test system: C. tropicalis; assay: MIC, microdilution broth method (NCCLS); format: cell-based; conditions: cation supplemented Mueller Hinton broth, 35° C., 16-20 hours; unit assumed
# Experimental: as §1, §2, §3
# [5] = test system: E. coli oc2530; assay: MIC, microdilution broth method (NCCLS); format: cell-based; conditions: cation supplemented Mueller Hinton broth, 35° C., 16-20 hours; unit assumed
# Experimental: as §1, §2, §3
# [6] = test system: E. coli oc2605; assay: MIC, microdilution broth method (NCCLS); format: cell-based; conditions: cation supplemented Mueller Hinton broth, 35° C., 16-20 hours; unit assumed
# Experimental: as §1, §2, §3
# [7] = test system: E. faecalis ACTCC 29212; assay: MIC, microdilution broth method (NCCLS); format: cell-based; conditions: cation supplemented Mueller Hinton broth, 35° C., 16-20 hours; unit assumed
# Experimental: as §1, §2, §3
# [8] = test system: E. faecalis oc3041; assay: MIC, microdilution broth method (NCCLS); format: cell-based; conditions: cation supplemented Mueller Hinton broth, 35° C., 16-20 hours; unit assumed
# Experimental: as §1, §2, §3
# [9] = test system: E. faecium oc2993; assay: MIC, microdilution broth method (NCCLS); format: cell-based; conditions: cation supplemented Mueller Hinton broth, 35° C., 16-20 hours; unit assumed
# Experimental: as §1, §2, §3
# [10] = test system: K. pneum. oc1943; assay: MIC, microdilution broth method (NCCLS); format: cell-based; conditions: cation supplemented Mueller Hinton broth, 35° C., 16-20 hours; unit assumed
# Experimental: as §1, §2, §3
# [11] = test system: MRSA oc2089; assay: MIC, microdilution broth method (NCCLS); format: cell-based; conditions: cation supplemented Mueller Hinton broth, 35° C., 16-20 hours; unit assumed
# Experimental: as §1, §2, §3
# [12] = test system: MRSA oc667; assay: MIC, microdilution broth method (NCCLS); format: cell-based; conditions: cation supplemented Mueller Hinton broth, 35° C., 16-20 hours; unit assumed
# Experimental: as §1, §2, §3
# [13] = test system: Ps. aerug. oc161; assay: MIC, microdilution broth method (NCCLS); format: cell-based; conditions: cation supplemented Mueller Hinton broth, 35° C., 16-20 hours; unit assumed
# Experimental: as §1, §2, §3
# [14] = test system: Ps. aerug. oc27853; assay: MIC, microdilution broth method (NCCLS); format: cell-based; conditions: cation supplemented Mueller Hinton broth, 35° C., 16-20 hours; unit assumed
# Experimental: as §1, §2, §3
# [15] = test system: S. aureus ATCC 29213; assay: MIC, microdilution broth method (NCCLS); format: cell-based; conditions: cation supplemented Mueller Hinton broth, 35° C., 16-20 hours; unit assumed
# Experimental: as §1, §2, §3
# [16] = test system: S. epi oc2603; assay: MIC, microdilution broth method (NCCLS); format: cell-based; design: unit not given here; conditions: cation supplemented Mueller Hinton broth, 35° C., 16-20 hours
# Experimental: as §1, §2, §3
Compound,IC50 [1] [mM],IC min [1] [mM],MIC A. niger 10578 [2] [µg/mL],MIC C. albicans 10231 [3] [µg/mL],MIC C. tropicalis [4] [µg/mL],MIC E. coli oc2530 [5] [µg/mL],MIC E. coli oc2605 [6] [µg/mL],MIC E. faecalis ACTCC 29212 [7] [µg/mL],MIC E. faecalis oc3041 [8] [µg/mL],MIC E. faecium oc2993 [9] [µg/mL],MIC K. pneum. oc1943 [10] [µg/mL],MIC MRSA oc2089 [11] [µg/mL],MIC MRSA oc667 [12] [µg/mL],MIC Ps. aerug. oc161 [13] [µg/mL],MIC Ps. aerug. oc27853 [14] [µg/mL],MIC S. aureus ATCC 29213 [15] [µg/mL],MIC S. epi oc2603 [16]
C1=CC(CCOc2ccc(CCCNCCN3CCCC3)cc2)(Cc2ccccc2)CCC1 (centres unmarked) [Compound 3],159,31.25,4,> 64,8,8,16,8,8,8,32,8,8,> 64,> 64,8,8
NCCc1ccc(OCCC2(Cc3ccccc3)C=CCCC2)cc1 (centres unmarked) [Compound 17],38.3,15.6,4,≤ 16,4,8,64,8,8,8,> 64,8,8,> 64,> 64,8,8
CNCCCc1ccc(OCCC2(c3ccc(F)cc3)C=CCCC2)cc1 (centres unmarked) [Compound 24],185,125,4,8,8,8,> 64,8,8,8,> 128,8,8,> 128,> 128,8,8
Clc1ccc(CC2(CCOc3ccc(CCNCCN4CCCC4)cc3)C=CCCC2)cc1 (centres unmarked) [Compound 34],295,125,8,8,≤ 4,4,8,4,4,4,32,4,4,> 64,> 64,4,4
N=C(N)NCCCc1ccc(OCCC2(Cc3ccccc3)C=CCCC2)cc1 (centres unmarked) [Compound 38],164.1,125,,,,,,,,,,,,,,,
NCCc1ccc(OCCC2(Cc3cccc(Cl)c3)C=CCCC2)cc1 (centres unmarked) [Compound 39],61.5,31.25,,,,,,,,,,,,,,,
Clc1cccc(CC2(CCOc3ccc(CCNCCN4CCCC4)cc3)C=CCCC2)c1 (centres unmarked) [Compound 40],46.8,31.25,,,,,,,,,,,,,,,
COc1ccc(CC2(CCOc3ccc(CCN)cc3)C=CCCC2)cc1 (centres unmarked) [Compound 41],82.5,31.25,2,8,4,4,> 64,8,8,8,> 128,8,8,> 128,> 128,8,8
CNCCCc1ccc(OCCC2(Cc3ccc(OC)cc3)C=CCCC2)cc1 (centres unmarked) [Compound 42],139,62.5,,,,,,,,,,,,,,,
COc1ccc(CC2(CCOc3ccc(CCCN)cc3)C=CCCC2)cc1 (centres unmarked) [Compound 43],210,125,,,,,,,,,,,,,,,
COc1ccc(CC2(CCOc3ccc(CCCNCCN4CCCC4)cc3)C=CCCC2)cc1 (centres unmarked) [Compound 44],133,62.5,,,,,,,,,,,,,,,
N=C(N)NCCc1ccc(OCCC2(Cc3cccc(Cl)c3)C=CCCC2)cc1 (centres unmarked) [Compound 45],17.9,15.6,,,,,,,,,,,,,,,
COc1ccc(CC2(CCOc3ccc(CCNC(=N)N)cc3)C=CCCC2)cc1 (centres unmarked) [Compound 47],21,15.6,,,,,,,,,,,,,,,
CNCCCc1cnc(NCCC2(Cc3ccccc3)C=CCCC2)nc1 (centres unmarked) [Compound 48],,500,,,,,,,,,,,,,,,
NCCCc1cnc(NCCC2(Cc3ccccc3)C=CCCC2)nc1 (centres unmarked) [Compound 49],162,,16,32,16,16,128,32,32,32,128,32,32,128,128,64,16
COc1ccc(CC2(CCOc3ccc(C(N)=O)cc3)C=CCCC2)cc1 (centres unmarked) [Compound 51],,> 1000,,,,,,,,,,,,,,,
NCCCc1ccc(OCCC2(Cc3ccc(Cl)cc3)C=CCCC2)cc1 (centres unmarked) [Compound 52],174,,,,,,,,,,,,,,,,
COc1ccc(CC2(CCOc3ccc(CCCNC(=N)N)cc3)C=CCCC2)cc1 (centres unmarked) [Compound 53],113,,8,4,2,16,> 64,4,8,8,> 128,4,8,> 128,> 128,4,8
COc1ccc(CC2(CCOc3ccccc3CN)C=CCCC2)cc1 (centres unmarked) [Compound 54],122,,,,,,,,,,,,,,,,
NCc1ccccc1OCCC1(Cc2ccccc2Cl)C=CCCC1 (centres unmarked) [Compound 55],91.3,,,,,,,,,,,,,,,,
COc1ccc(CC2(CCOc3cccc(CNC(=N)N)c3)C=CCCC2)cc1 (centres unmarked) [Compound 56],66.6,,,,,,,,,,,,,,,,
COc1ccc(CC2(CCOc3ccc(CNC(=N)N)cc3)C=CCCC2)cc1 (centres unmarked) [Compound 57],46.6,,,,,,,,,,,,,,,,
NCc1cccc(OCCC2(Cc3cc(Cl)cc(Cl)c3)C=CCCC2)c1 (centres unmarked) [Compound 58],74.8,,,,,,,,,,,,,,,,
NCCNCCc1ccc(OCCC2(Cc3cccc(Cl)c3)C=CCCC2)cc1 (centres unmarked) [Compound 61],94.6,62.5,,,,,,,,,,,,,,,
"CC1COc2c(N3CCN(C)CC3)c(F)cc3c(=O)c(C(=O)O)cn1c23 (centres unmarked) [OFX, reference compound]",,,> 128,> 128,> 128,≤ 0.12,≤ 0.12,2,2,4,0.25,4,0.5,2,8,0.5,2
